Patent publication US20130030000A1, “PHARMACEUTICAL COMPOSITIONS FOR THE TREATMENT OF PAIN AND OTHER INDICATIONS” (priority 2010, published 2013)

System: Complete Freunds Adjuvant model of inflammatory pain
Experiment: Combination study: isobolographic analysis in the Complete Freunds Adjuvant model of inflammatory pain
Type: in vivo
Details: rat, PO, etoricoxib:Compound A dose ratios 1:1, 0.3:1 and 3:1
Protocol: Etoricoxib and Compound A were tested in PO dose ratios of 1:1, 0.3:1, and 3:1.

In the case of `Cc1ccc(-c2ncc(Cl)cc2-c2ccc(S(C)(=O)=O)cc2)cn1` [etoricoxib, reference compound], the “Interaction of analgesic effect against inflammatory pain when co-dosed (isobologram)” value is reported as “additive”.
In the case of `CC(C)(O)c1ccc(-c2nc(-c3ccc(F)c(F)c3)oc2Sc2ccc(Cl)cn2)cn1` [compound A], the “Interaction of analgesic effect against inflammatory pain when co-dosed (isobologram)” value is reported as “additive”.

Target: T1, Human FAAH (Homo sapiens, UniProt O00519)
T1 construct: The full length FAAH was subcloned into the mammalian expression vector, peDEF.neo
T1 sequence (O00519 1-579): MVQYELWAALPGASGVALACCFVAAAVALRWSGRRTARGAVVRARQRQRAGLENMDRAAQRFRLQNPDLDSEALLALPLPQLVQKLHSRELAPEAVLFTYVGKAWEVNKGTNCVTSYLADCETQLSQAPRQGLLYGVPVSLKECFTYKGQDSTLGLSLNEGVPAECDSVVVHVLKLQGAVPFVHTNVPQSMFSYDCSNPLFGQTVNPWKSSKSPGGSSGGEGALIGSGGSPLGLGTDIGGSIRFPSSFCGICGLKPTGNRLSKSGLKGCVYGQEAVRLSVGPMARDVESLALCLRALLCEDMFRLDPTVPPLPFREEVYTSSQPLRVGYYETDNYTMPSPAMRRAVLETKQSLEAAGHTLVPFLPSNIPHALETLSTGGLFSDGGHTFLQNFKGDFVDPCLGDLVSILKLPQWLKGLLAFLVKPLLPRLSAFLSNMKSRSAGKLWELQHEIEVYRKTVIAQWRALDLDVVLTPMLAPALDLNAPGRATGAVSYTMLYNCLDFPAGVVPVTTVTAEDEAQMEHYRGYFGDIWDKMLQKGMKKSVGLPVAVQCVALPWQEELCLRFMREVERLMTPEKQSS
Experiment: Human FAAH lysate assay (CHO cell lysate expressing FAAH, AAMCA or 3H-anandamide hydrolysis)
Type: biochemical
Details: B series; read-out: Human FAAH lysate assay: IC50
From the text: To assist in assay development stable cell lines for human, murine and rat full length FAAH were developed. […] The full length FAAH was subcloned into the mammalian expression vector, peDEF.neo, using XbaI and EcoRI restriction sites and used for stable cell line generation.
CHO cells expressing FAAH were used to prepare either crude cell lysate or microsome fractions. To harvest cells, tissue culture media was decanted, the monolayer washed three times with Ca^++Mg^++ free PBS and cells recovered after […] in enzyme free dissociation media (Millipore Corp, Billerica, Mass.). Cells were collected by centrifuging at 2000 rpm for 15 min. and the cell pellet re-suspended with 50 mM HEPES (pH 7.4) containing 1 mM EDTA and the protease inhibitors aprotinin (1 mg/ml) and leupeptin (100 μM). The suspension was sonicated at 4° C. and the cell lysate recovered after centrifuging at 12,000×g (14,600 rpm, SS34 rotor) for 20 min at 4° C. to form a crude pellet of cell debris, nuclei, peroxisomes, lysosomes, and mitochondria; the supernatant or cell lysate was used for FAAH enzyme assay. In some cases, microsomes fractions enriched in FAAH were prepared by centrifuging the cell lysate further at 27,000 rpm (100,000×g) in SW28 rotor for 50 minutes at 4° C. The pellet containing FAAH-enriched microsomes was re-suspend in 50 mM HEPES, (pH 7,4) 1 mM EDTA, and any remaining DNA sheared by passage of material through a 23 gauge needle and aliquots of enzyme were store at −80° C. prior to use.
Assays are performed on either cell lysate or microsome fractions prepared as described or in whole cell format employing either the fluorescent substrate AAMCA (Cayman chemical, Ann Arbor, Mich.,) or ^3H-anandamide ([ETHANOLAMINE-1-3H] American Radiolabeled Chemicals; 1 mCi/ml). The cell lysate or microsome assay is performed in Costar black wall, clear bottom plates by adding FAAH_CHO (whole cell, cell lysate or microsome) in assay buffer (50 mM Phosphate, pH 8.0, 1 mM EDTA, 200 mM KCl, 0.2% glycerol, 0.1% fatty acid free BSA) to each well, followed by either DMSO or compound and allowed to incubate at 22-25° C. for fifteen minutes. AAMCA substrate was used to achieve a final concentration of 1 μM and reaction allowed to proceed at room temperature for 1-3 hours. […] Whole cell assay is conducted with cells harvested after rinsing tissue culture flasks three times with Ca^++Mg^++ free PBS, incubating for 10 mm in Enzyme free dissociation media and centrifuging for 5 minutes at 1,000 rpm in table top centrifuge. Cells are resuspended in assay buffer at desired cell number in (4×10^4 cells/assay in 96-well format; 1×10^4 cells/assay in 384-well format) and assayed as described.
Alternatively, assays are performed using anandamide [ethanolamine 1-^3H] (specific activity of 10 Ci/mmol) diluted with cold anandamide to achieve a final assay concentration of 1 μM anandamide (˜50,000 cpm). Enzyme (CHO cell lysate, brain or liver homogenate) is incubated in assay buffer (50 mM Phosphate, pH 8.0, 1 mM EDTA, 200 mM KCl, 0.2% glycerol, 0.1% fatty acid free BSA) with inhibitor at 25° C. for 30 minutes. The reaction was terminated by addition of 2 volumes of chloroform:methanol (1:1) and mixed by vortexing. Following a centrifugation step, 2000 rpm for 10 min. at room temperature, the aqueous phase containing the released […] was recovered and quantitated by liquid scintillation as a reflection of FAAH enzyme activity.

Point of comparison: `CN(C)C(=O)[C@H]1C[C@@H]1c1ccc(-c2ncn(C)c2Sc2ccc(Cl)cn2)cc1` [Example 5B, (1S,2S)-2-(4-{5-[(5-Chloropyridin-2-yl)thio]-1-methyl-1H-imidazol-4-yl}phenyl)-N,N-dimethylcyclopropanecarboxamide], IC50 1 nM. Against it:
- Cn1cnc(-c2ccc([C@H]3C[C@@H]3c3n[nH]c(=S)o3)cc2)c1Sc1ccc(Cl)cn1 [Example 31B, 5-[(1S,2S)-2-(4-{5-[(5-chloropyridin-2-yl)thio]-1-methyl-1H-imidazol-4-yl}phenyl)cyclopropyl]-1,3,4-oxadiazole-2(3H)-thione] — 680-fold higher, 677 nM
- Cc1nc(-c2ccc([C@@H]3C[C@H]3C(=O)N(C)C)cc2)c(Sc2ccc(Cl)cn2)n1C [Example 12B, (1R,2R)-2-(4-{5-[(5-Chloropyridin-2-yl)thio]-1,2-dimethyl-1H-imidazol-4-yl}phenyl)-N,N-dimethylcyclopropanecarboxamide] — 14-fold higher, 13.6 nM
- Cn1cnc(-c2ccc([C@H]3C[C@@H]3c3ncon3)cc2)c1Sc1ccc(Cl)cn1 [Example 35B, 5-chloro-2-[(1-methyl-4-{4-[(1S,2S)-2-(1,2,4-oxadiazol-3-yl)cyclopropyl]phenyl}-1H-imidazol-5-yl)thio]pyridine] — 58-fold higher, 58.4 nM
- Cn1cnc(-c2ccc([C@H]3C[C@@H]3c3nn(C)c(=O)o3)cc2)c1Sc1ccc(Cl)cn1 [Example 3013, 5-[(1S,2S)-2-(4-{5-[(5-chloropyridin-2-yl)thio]-1-methyl-1H-imidazol-4-yl}phenyl)cyclopropyl]-3-methyl-1,3,4-oxadiazol-2(3H)-one] — 170-fold higher, 171 nM
- CN(CCF)C(=O)[C@H]1C[C@@H]1c1ccc(-c2ncn(C)c2Sc2ccc(Cl)cn2)cc1 [Example 11B, (1S,2S)-2-(4-{5-[(5-Chloropyridin-2-yl)thio]-1-methyl-1H-imidazol-4-yl}phenyl)-N-(2-fluoroethyl)-N-methylcyclopropanecarboxamide] — 3-fold higher, 3 nM
- Cn1nnc([C@H]2C[C@@H]2c2ccc(-c3ncn(C)c3Sc3ccc(Cl)cn3)cc2)n1 [Example 38B, 5-chloro-2-[(1-methyl-4-{4-[(1 S,2S)-2-(2-methyl-2H-tetrazol-5-yl)cyclopropyl]phenyl}-1H-imidazol-5-yl)thio]pyridine] — 37-fold higher, 37 nM
- Cn1cnc(-c2ccc([C@H]3C[C@@H]3C(=O)NCCF)cc2)c1Sc1ccc(Cl)cn1 [Example 1013, (1S,2S)-2-(4-{5-[(5-Chloropyridin-2-yl)thio]-1-methyl-1H-imidazol-4-yl}phenyl)-N-(2-fluoroethyl)cyclopropanecarboxamide] — 1.5-fold higher, 1.5 nM

Same assay, conditions: tables of the B series; read-out: hFAAH lysate IC50

Point of comparison: `Cn1cnc(-c2ccc([C@H]3C[C@@H]3c3n[nH]c(=O)o3)cc2)c1Sc1ccc(F)cc1F` [Example 41B], IC50 1.3 nM. Against it:
- Cn1cnc(-c2ccc([C@H]3C[C@@H]3c3n[nH]c(=O)o3)cc2)c1Sc1ccc(Cl)cc1F [Example 42B] — within 1.5-fold, 1.8 nM
- Cn1cnc(-c2ccc([C@H]3C[C@@H]3c3n[nH]c(=O)o3)cc2)c1Sc1ccc(Cl)cc1 [Example 39B] — 18-fold higher, 24 nM
